Reference: patent publication US10081812B2, “D-amino acid-inducible gene expression system for Rhodosporidium and Rhodotorula” (TEMASEK LIFE SCIENCES LABORATORY LIMITED, priority 2015, dated 2018)

Legend:
DAO1 mRNA = test: qRT-PCR of DAO1 mRNA transcripts in R. toruloides cells; assay type: cell-based
Protocol: (§1) For gene induction studies, modified MinAB (MinABs) (28) with carbon source and nitrogen source (NH4NO3) omitted was used as basal medium. Carbon source (10 g/L glucose, 70 mM L-alanine or D-alanine) and nitrogen source (70 mM ammonium sulfate, L-alanine or D-alanine) were supplemented as required. For stress treatments, YPD broth was used as the basal medium and cultured after supplementation of various chemicals, or in harsh conditions. Unless indicated otherwise, cell cultures were conducted in a rotary shaker under 28° C. and 250 rpm.
Total RNA was treated with DNase I (Roche Diagnostics) and recovered by ethanol precipitation to remove the trace DNA. cDNA was synthesized using the iScript™ Reverse Transcription Supermix for RT (Bio-Rad, USA) and real-time PCR was conducted in ABI PRISM 7900HT Sequence Detection System (Life Technologies, USA) using the ABI SYBR® Select Master Mix (Life Technologies, USA). PCR conditions were as followed: an initial 50° C. for 2 min and 95° C. denaturation step for 10 min followed by 40 cycles of denaturation at 95° C. for 15 s, annealing at 60° C. for 1 min. Triplicates were used for all qRT-PCR analyses. The data was acquired using the software SDS 2.4 (Applied Biosystems, Life Technologies, USA) and relative gene expression was calculated against the reference gene ACT1 (nucleotide sequence: SEQ ID NO:89; amino acid sequence: SEQ ID NO:90) with the 2-ΔΔCt method through the RQ Manager software v1.2.1 (Applied Biosystems, USA).
To investigate the regulation DAO1 gene expression, the mRNA level in cells cultured in YPD medium supplemented with D-alanine or L-alanine levels was quantitated by qRT-PCR using the Actin mRNA (ACT1) as the reference. As expected, DAO1 mRNA expression was negligible when cells were cultured in MinABs medium supplemented with L-alanine or ammonium sulfate as the sole nitrogen source (FIG. 4B).

DAO1 promoter (PDAO1in) = test: Luciferase reporter assay of 2.2 kb intron 1-containing DAO1 promoter (PDAO1in) reporter strains; assay type: cell-based, R. toruloides; settings: for induction of DAO1 promoter by D-amino acid: 70 mM as the sole carbon and nitrogen source in MinABs, 21 h induction, FIG. 8
Protocol: as §1
Yeast strains transformed with PDAOinx::RtLUC2 cassettes were cultured in YPD broth to mid-exponential phase. Cells were water-washed twice and resuspended in MinABs plus 70 mM of either D-alanine or L-alanine to a cell optical density at 600 nm (OD600) of 0.5 and continued culturing at 30° C., 250 rpm for 21 hr. Cells were harvested, washed and resuspended in PBS buffer supplemented with 1 mM DTT, 3 mM β-mercaptoethanol and 1 mM PMSF (pH7.4) supplemented with equal volume of 0.5 mm glass beads (Sigma-Aldrich, USA), and lysed with FastPrep 24™ 5 G (MP Biomedicals, Irvine, Calif., USA) for 40 seconds. The protein concentration and luciferase activity was determined using Bradford method and a commercial luciferase assay kit (Promega, USA) under the supplier's protocol, respectively. All data was measured and acquired with the Infinite M200 plate reader coupled with the iCycler software (version 3.0, Tecan, Salzburg, Austria). All experiments were performed in both biological and statistical triplicates. For determination of relative promoter activity (RPA), luminescence value was subtracted against the blank or negative control (promoter-less strain), normalized against the protein concentration, then normalized against either the values of PGPD1 or the maximum reading.
To investigate the effects of carbon and nitrogen sources on promoter activity, 3 strains with 2.2 kb intron 1-containing DAO1 promoter (PDAO1in) knocked in at the CAR2 locus were cultured in the modified MinAB medium (MinABs), which had glucose and ammonium sulfate supplemented to the basal medium MinAB when necessary.
Here, substrate selectivity of the 2.2 kb DAO1 promoter (PDAO1in) reporter strains was investigated on their inducibility by different D-amino acids.

[1] = system: DAO1 mRNA transcripts / Dao1 protein; settings: induction with D-alanine; cited from earlier work

C[C@@H](N)C(=O)O [D-alanine]
DAO1 mRNA level relative to control medium (DAO1 mRNA; 6-hr after D-alanine supplementation, both glucose and ammonium sulfate omitted, FIG. 4B): ~100 fold | DAO1 mRNA level increase (DAO1 mRNA; cultured in the presence of 70 mM D-alanine, ACT1 reference, FIG. 4B): 12-18 folds | induction of DAO1 promoter by D-amino acid (DAO1 promoter (PDAO1in)): most preferably induced | luciferase expression among media (DAO1 promoter (PDAO1in); MinABs supplemented with 70 mM D-alanine only, FIG. 7A): Best luciferase expression | concentration effective in driving expression of the reporter gene (as low as) (DAO1 promoter (PDAO1in); MinABs with 10 g/L glucose, FIG. 7B): 20 mM | Dao1 protein share of the soluble intracellular proteins [1]: 1.0% | time of peak of DAO1 mRNA transcripts after induction [1]: ≤ 12 h

CC(C)C[C@@H](N)C(=O)O [D-leucine]
induction of DAO1 promoter by D-amino acid (DAO1 promoter (PDAO1in)): significantly less effective

CSCC[C@@H](N)C(=O)O [D-methionine]
induction of DAO1 promoter by D-amino acid (DAO1 promoter (PDAO1in)): significantly less effective

N[C@H](Cc1ccccc1)C(=O)O [D-phenylalanine]
induction of DAO1 promoter by D-amino acid (DAO1 promoter (PDAO1in)): significantly less effective

O=C(O)[C@H]1CCCN1 [D-proline]
induction of DAO1 promoter by D-amino acid (DAO1 promoter (PDAO1in)): similarly effective

N[C@H](CO)C(=O)O [D-serine]
induction of DAO1 promoter by D-amino acid (DAO1 promoter (PDAO1in)): similarly effective

C[C@H](O)[C@@H](N)C(=O)O [D-threonine]
induction of DAO1 promoter by D-amino acid (DAO1 promoter (PDAO1in)): similarly effective

N[C@H](Cc1c[nH]c2ccccc12)C(=O)O [D-tryptophan]
induction of DAO1 promoter by D-amino acid (DAO1 promoter (PDAO1in)): significantly less effective

CC(C)[C@@H](N)C(=O)O [D-valine]
induction of DAO1 promoter by D-amino acid (DAO1 promoter (PDAO1in)): similarly effective

C[C@H](N)C(=O)O [L-alanine]
DAO1 mRNA expression (DAO1 mRNA; MinABs medium, substance as the sole nitrogen source, FIG. 4B): negligible | reduction of luciferase expression (DAO1 promoter (PDAO1in); equal level (70 mM) added as the competitor to 70 mM D-alanine, after 21 hr culture, FIG. 7A): about 5 fold

N.N.O=S(=O)(O)O [ammonium sulfate]
effect on D-alanine-induced DAO1in promoter activity (DAO1 promoter (PDAO1in); added to MinABs with 70 mM D-alanine, glucose 10 g/L, ammonium sulfate 70 mM, FIG. 7A): little effect | effect of concentration on DAO1 promoter activity (DAO1 promoter (PDAO1in); glucose 10-100 g/L, ammonium sulfate 5-50 mM, with 70 mM D-alanine, FIGS. 7C and 7D): only marginal effects

OCC(O)CO [glycerol]
DAO1 transcription compared to that of glucose (DAO1 mRNA; substance as the sole carbon source (YPG broth), 6 hour, 28° C., FIG. 4C): enhance DAO1 transcription
